{
  "source": "paper PMC6378217",
  "about": "“The lysyl oxidase like 2/3 enzymatic inhibitor, PXS‐5153A, reduces crosslinks and ameliorates fibrosis” (Journal of Cellular and Molecular Medicine, 2018)",
  "key": {"[1]": {"target": "Muscarinic M2 (Homo sapiens, UniProt P08172)", "sequence (P08172 whole entry)": "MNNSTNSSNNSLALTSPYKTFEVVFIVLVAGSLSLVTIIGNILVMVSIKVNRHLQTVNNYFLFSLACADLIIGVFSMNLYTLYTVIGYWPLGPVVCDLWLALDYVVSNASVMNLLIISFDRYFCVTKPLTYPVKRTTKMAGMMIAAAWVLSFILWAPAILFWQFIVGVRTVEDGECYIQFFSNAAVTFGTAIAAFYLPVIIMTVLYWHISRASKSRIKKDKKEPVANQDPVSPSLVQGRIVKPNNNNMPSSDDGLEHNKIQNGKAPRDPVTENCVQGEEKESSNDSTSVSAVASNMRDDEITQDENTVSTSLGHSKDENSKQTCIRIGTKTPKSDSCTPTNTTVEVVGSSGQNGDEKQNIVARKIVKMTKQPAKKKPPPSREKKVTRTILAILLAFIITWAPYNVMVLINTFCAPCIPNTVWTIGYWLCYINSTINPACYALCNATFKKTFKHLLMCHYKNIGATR", "test": "Eurofins Hit Profiling Screen", "format": "binding", "details": "10 μmol/L"}, "[2]": {"target": "T1, Recombinant mouse LOXL2 (Mus musculus, UniProt P58022)", "T1 construct": "purchased R&D Systems", "T1 sequence (P58022 26-776)": "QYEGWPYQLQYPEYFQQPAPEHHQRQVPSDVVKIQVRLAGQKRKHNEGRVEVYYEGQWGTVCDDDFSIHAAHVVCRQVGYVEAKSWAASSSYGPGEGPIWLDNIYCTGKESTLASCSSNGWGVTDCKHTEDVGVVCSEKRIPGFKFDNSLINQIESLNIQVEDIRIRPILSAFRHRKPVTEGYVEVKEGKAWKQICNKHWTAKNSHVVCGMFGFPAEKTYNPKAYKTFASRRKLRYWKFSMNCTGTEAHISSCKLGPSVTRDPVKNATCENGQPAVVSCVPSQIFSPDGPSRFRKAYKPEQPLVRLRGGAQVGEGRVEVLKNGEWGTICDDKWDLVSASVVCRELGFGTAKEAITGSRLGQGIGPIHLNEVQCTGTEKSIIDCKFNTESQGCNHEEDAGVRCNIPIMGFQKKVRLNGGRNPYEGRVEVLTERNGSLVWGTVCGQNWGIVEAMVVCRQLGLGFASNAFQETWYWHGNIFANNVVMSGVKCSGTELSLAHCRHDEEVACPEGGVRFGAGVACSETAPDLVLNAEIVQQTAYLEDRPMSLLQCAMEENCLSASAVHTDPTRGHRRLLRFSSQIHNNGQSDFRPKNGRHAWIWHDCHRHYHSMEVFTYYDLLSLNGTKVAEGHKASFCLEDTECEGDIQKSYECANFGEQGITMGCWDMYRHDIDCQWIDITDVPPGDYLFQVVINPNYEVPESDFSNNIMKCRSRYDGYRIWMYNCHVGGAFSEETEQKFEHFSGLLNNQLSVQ", "test": "Amplex-Red fluorometric enzymatic activity assay, recombinant mouse LOXL2", "format": "biochemical", "details": "30 minute pre-incubation; average of at least three experiments", "procedure": "(§1) The measurement of the enzymatic activity of all lysyl oxidase family members was based on the detection of hydrogen peroxide with an Amplex‐Red oxidation assay, as described in Zhou et al26 Recombinant human semicarbazide sensitive amine oxidase (SSAO/VAP1), diamine oxidase (DAO) and monoamine oxidases A and B (MAO‐A and MAO‐B) assays were performed as previously described.27 For detailed enzymatic procedures, see supporting information.\n(§2) The measurement of the enzymatic activity of all lysyl oxidase family members was based on the detection of hydrogen peroxide with an Amplex-Red oxidation assay, as described in Zhou et al.[1]; miniaturised in 384 well format, with the appropriate combination of substrate and assay buffer for each individual enzyme. After a 30 minute pre-incubation of the enzyme at 37 °C with the test compound (or with different incubation times for the time-dependency assay), one volume of reaction mixture containing 120 μM Amplex Red (AR) (Life Technologies), 1.5 U/mL horseradish peroxidase (HRP) (Sigma-Aldrich) and the specific substrate was added to each sample. The relative fluorescence units (RFU) were then measured every 2.5 minutes for 30 minutes at 37°C, excitation 565 nm and emission 590, on a BMG Clariostar Microplate Reader. […]"}, "[3]": {"target": "Adrenergic β2 (Homo sapiens, UniProt P07550)", "sequence (P07550 whole entry)": "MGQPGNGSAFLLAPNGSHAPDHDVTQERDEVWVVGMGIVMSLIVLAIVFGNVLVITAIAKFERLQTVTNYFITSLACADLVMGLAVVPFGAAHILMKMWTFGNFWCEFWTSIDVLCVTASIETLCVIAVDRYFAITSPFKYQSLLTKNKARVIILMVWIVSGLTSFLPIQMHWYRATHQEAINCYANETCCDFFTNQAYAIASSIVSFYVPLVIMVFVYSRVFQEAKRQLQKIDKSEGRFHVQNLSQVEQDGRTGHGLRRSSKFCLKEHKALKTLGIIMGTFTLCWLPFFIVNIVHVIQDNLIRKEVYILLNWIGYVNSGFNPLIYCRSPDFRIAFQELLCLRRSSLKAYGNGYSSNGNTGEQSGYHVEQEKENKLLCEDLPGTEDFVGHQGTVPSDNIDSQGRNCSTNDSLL", "test": "Eurofins Hit Profiling Screen", "format": "binding", "details": "10 μmol/L"}, "[4]": {"test": "Pharmacokinetic study in rats", "format": "in vivo, Wistar rats", "details": "rat", "procedure": "Studies were performed by Pharmalegacy (Shanghai, China), GVK (Hyderabad, India) and Sundia, (Shanghai, China), with local ethics approval. Wistar rats were administered PXS‐5153A orally at 10 mg/kg or intravenously at 5 mg/kg, while C57/BL6 mice received PXS‐5153A orally or intravenously at 5 mg/kg. Plasma was analysed for PXS‐5153A by high‐performance liquid chromatography‐mass spectrometry/mass spectrometry (LCMS/MS)."}, "[5]": {"tested_on": "Rolipram", "test": "Eurofins Hit Profiling Screen", "format": "binding", "details": "10 μmol/L"}, "[6]": {"target": "Histamine H1 (Homo sapiens, UniProt P35367)", "sequence (P35367 whole entry)": "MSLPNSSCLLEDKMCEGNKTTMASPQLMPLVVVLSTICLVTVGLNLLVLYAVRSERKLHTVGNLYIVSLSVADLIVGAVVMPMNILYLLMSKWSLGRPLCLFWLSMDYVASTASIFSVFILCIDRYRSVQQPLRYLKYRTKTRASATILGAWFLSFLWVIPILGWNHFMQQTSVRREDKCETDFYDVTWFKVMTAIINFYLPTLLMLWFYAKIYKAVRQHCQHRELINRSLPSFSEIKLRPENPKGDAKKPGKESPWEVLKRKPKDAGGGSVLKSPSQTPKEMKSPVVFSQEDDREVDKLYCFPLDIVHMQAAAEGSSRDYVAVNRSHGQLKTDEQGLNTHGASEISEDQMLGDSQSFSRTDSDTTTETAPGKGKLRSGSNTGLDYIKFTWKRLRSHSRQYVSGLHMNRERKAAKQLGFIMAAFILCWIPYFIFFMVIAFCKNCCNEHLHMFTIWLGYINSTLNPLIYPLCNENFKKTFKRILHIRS", "test": "Eurofins Hit Profiling Screen", "format": "binding", "details": "10 μmol/L"}, "[7]": {"tested_on": "NASH-induced liver disease", "test": "NASH-induced liver disease (streptozotocin/high fat diet, STAM)", "format": "in vivo, C57/BL6 mice", "procedure": "Pellet then underwent acid hydrolysis in 6 mol/L HCl at 100°C for 24 hours. Hydroxyproline and crosslinks were extracted from the hydrolysate using an automated solid phase extraction system (Gilson […] system). After extraction and drying, hydroxyproline and crosslinks were analysed by UHPLC-ESI-MS/MS on a Thermo Dionex UHPLC and TSQ Endura triple quad mass spectrometer. Total protein was quantified in the samples using a commercially available kit (QuickZyme Biosciences, Leiden, The Netherlands). For detailed procedures, see supporting information. The study was performed by Stelic MC, Inc. (Tokyo, Japan) with approval from local ethics committee. NASH was established in male C57/BL6 mice by a single subcutaneous injection of 200 μg streptozotocin (Sigma-Aldrich) after birth and with a high fat diet (CLEA Japan) ad libitum after 4 weeks of age (day 28 ± 2) until 14 weeks of age. Mice were orally administered with 10 mg/kg PXS-5153A once daily from 8 to 14 weeks of age. ALT levels were assessed in the plasma. One lobe of the liver tissue was fixed in 10% formalin, stained for Sirius red and the percentage coverage area was measured; HE staining was performed to estimate non-alcoholic fatty liver disease (NAFLD) activity score according to the criteria of Kleiner et al28 The remainder of the liver was snap frozen and used for protein, hydroxyproline and crosslink analysis."}, "[8]": {"target": "Potassium Channel [KATP] (Cricetus cricetus, UniProt Q09427)", "sequence (Q09427 whole entry)": "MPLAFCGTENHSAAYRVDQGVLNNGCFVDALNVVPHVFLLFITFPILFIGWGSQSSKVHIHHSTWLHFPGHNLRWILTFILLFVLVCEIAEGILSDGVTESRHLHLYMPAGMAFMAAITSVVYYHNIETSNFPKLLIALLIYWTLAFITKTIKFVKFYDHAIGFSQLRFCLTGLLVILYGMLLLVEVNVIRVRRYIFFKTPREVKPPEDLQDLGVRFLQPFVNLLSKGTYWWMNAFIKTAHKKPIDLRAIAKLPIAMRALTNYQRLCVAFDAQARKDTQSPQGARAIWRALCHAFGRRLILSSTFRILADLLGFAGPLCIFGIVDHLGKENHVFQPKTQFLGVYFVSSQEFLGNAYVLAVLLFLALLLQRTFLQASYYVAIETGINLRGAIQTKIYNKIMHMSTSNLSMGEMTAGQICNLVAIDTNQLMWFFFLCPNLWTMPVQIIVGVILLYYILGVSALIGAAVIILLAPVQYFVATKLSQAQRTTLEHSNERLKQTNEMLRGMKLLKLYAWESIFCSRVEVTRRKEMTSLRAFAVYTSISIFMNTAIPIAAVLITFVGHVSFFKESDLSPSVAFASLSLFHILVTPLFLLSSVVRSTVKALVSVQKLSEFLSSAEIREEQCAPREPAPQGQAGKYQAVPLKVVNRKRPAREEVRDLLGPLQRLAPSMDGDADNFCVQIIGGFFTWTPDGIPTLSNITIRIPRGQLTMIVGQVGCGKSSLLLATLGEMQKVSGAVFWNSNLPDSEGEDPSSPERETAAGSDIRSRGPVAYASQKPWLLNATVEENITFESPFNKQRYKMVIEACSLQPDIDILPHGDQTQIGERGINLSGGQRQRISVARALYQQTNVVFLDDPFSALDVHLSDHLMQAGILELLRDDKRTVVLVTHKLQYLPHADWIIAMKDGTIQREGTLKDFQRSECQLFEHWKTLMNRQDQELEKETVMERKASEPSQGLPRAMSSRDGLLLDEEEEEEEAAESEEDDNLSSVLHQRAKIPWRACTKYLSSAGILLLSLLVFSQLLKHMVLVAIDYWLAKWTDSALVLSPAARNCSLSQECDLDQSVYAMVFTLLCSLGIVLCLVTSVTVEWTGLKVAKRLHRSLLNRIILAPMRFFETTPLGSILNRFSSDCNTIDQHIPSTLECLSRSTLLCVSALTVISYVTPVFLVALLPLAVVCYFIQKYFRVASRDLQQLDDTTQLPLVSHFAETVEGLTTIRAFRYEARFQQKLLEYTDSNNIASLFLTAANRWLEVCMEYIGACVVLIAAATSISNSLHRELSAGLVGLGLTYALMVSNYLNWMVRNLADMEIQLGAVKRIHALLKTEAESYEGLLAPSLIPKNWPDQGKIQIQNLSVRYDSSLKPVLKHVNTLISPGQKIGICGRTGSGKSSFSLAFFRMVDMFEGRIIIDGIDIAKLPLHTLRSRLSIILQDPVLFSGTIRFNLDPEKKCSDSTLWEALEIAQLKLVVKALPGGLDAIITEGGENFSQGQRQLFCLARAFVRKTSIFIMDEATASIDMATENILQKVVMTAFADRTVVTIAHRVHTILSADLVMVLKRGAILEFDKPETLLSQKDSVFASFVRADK", "test": "Eurofins Hit Profiling Screen", "format": "binding", "details": "10 μmol/L", "procedure": "PXS‐5153A was tested at Eurofins Cerep Panlabs Taiwan, Ltd in the “Hit Profiling Screen”, which tested 30 different targets.\nEurofins Hit Profiling Screen, was performed to evaluate the off -target profile of PXS-5153A. Biochemical assay results are presented as the percent inhibition of specific binding or activity."}, "[9]": {"target": "T2, Native human LOX (Homo sapiens, UniProt P28300)", "T2 construct": "collecting the 30-kDa LOX in the lower molecular weight portion; host or cells: IMR90 conditioned medium", "T2 sequence (P28300 169-417)": "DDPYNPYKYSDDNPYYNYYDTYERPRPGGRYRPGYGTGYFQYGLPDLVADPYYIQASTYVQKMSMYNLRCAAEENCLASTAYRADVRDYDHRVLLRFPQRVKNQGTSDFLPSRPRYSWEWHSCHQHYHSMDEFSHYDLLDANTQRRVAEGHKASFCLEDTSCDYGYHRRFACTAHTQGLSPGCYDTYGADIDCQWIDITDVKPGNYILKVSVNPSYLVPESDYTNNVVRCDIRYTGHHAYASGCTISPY", "test": "Amplex-Red fluorometric enzymatic activity assay, native human LOX (IMR90 conditioned medium)", "format": "biochemical", "details": "30 minute pre-incubation; average of at least three experiments", "procedure": "as §1, §2"}, "[10]": {"target": "Adenosine A2A (Homo sapiens, UniProt P29274)", "sequence (P29274 whole entry)": "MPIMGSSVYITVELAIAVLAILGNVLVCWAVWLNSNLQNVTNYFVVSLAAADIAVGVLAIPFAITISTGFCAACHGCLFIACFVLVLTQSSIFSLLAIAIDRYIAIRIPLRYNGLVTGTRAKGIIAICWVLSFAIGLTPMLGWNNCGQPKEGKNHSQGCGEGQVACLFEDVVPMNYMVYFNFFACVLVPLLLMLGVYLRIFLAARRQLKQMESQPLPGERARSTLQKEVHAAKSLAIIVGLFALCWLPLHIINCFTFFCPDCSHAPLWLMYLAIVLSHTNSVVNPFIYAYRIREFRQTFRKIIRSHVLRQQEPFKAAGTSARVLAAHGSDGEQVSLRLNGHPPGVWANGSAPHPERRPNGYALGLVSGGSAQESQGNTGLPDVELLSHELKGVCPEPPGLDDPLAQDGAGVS", "test": "Eurofins Hit Profiling Screen", "format": "binding", "details": "10 μmol/L"}},
  "data": [
    {"smiles": "Cc1c(-c2cccc(S(=O)(=O)N(C)C)c2)c2ncccc2n1C/C(F)=C/CN.Cl.Cl", "note": "[PXS-5153A]", "values": [
      {"measurement": "% inhibition", "setting": "[1]", "value": 58, "unit": "%"},
      {"measurement": "IC50", "setting": "[2]", "value": 21, "unit": "nM"},
      {"measurement": "pIC50 ± SD", "setting": "[2]", "value": "7.7 ± 0.2"},
      {"measurement": "% inhibition", "setting": "[3]", "value": -5, "unit": "%"},
      {"measurement": "Apparent half-life, t1/2", "setting": "[4]; intravenous 5 mg/kg", "value": 78, "unit": "min"},
      {"measurement": "Clearance CL", "setting": "[4]; intravenous 5 mg/kg", "value": 180, "unit": "mL/min/kg"},
      {"measurement": "Time of maximal concentration Tmax", "setting": "[4]; intravenous 5 mg/kg", "value": 1.8, "unit": "min"},
      {"measurement": "Apparent concentration at curve maximum Cmax", "setting": "[4]; oral 10 mg/kg", "value": 33, "unit": "ng/mL"},
      {"measurement": "Clearance CL", "setting": "[4]; oral 10 mg/kg", "value": 2029, "unit": "mL/min/kg"},
      {"measurement": "Time of maximal concentration Tmax", "setting": "[4]; oral 10 mg/kg", "value": 37.5, "unit": "min"},
      {"measurement": "Bioavailability", "setting": "[4]; oral 10 mg/kg (i.v. 5 mg/kg)", "value": 10, "unit": "%"},
      {"measurement": "% inhibition", "setting": "[5]", "value": 28, "unit": "%"},
      {"measurement": "% inhibition", "setting": "[6]", "value": 23, "unit": "%"},
      {"measurement": "DHLNL", "setting": "[7]; 10 mg/kg orally once daily", "value": "significantly reduced"},
      {"measurement": "NASH disease score (NAFLD activity score)", "setting": "[7]; 10 mg/kg orally once daily", "value": "reduction"},
      {"measurement": "PYD", "setting": "[7]; 10 mg/kg orally once daily", "value": "significantly reduced"},
      {"measurement": "hepatocyte ballooning", "setting": "[7]; 10 mg/kg orally once daily", "value": "significantly reduced"},
      {"measurement": "percentage coverage area by Picrosirius red staining", "setting": "[7]; 10 mg/kg orally once daily", "value": "reduced"},
      {"measurement": "HYP", "setting": "[7]; 10 mg/kg orally once daily from 8 to 14 weeks of age", "value": "significantly reduction"},
      {"measurement": "% inhibition", "setting": "[8]", "value": 8, "unit": "%"},
      {"measurement": "IC50", "setting": "[9]", "value": 1790, "unit": "nM"},
      {"measurement": "pIC50 ± SD", "setting": "[9]", "value": "5.7 ± 0.16"},
      {"measurement": "% inhibition", "setting": "[10]", "value": 0, "unit": "%"}
    ]}
  ]
}
